Experimental data: publication PMC9127750, “Structure-based design of CDC42 effector interaction inhibitors for the treatment of cancer” (Cell reports, 2022)
Values joined by “and” are separate entries in the source; they are usually repeats but may differ in a detail not shown here. Equal values may be shown once.

Tested on: WM3248 melanoma cells, 486 antibodies
Assay: Reverse phase protein arrays (RPPA)
Assay type: cell-based, Human
Settings: 5 uM
From the text: Pellets were snap frozen in liquid nitrogen and shipped to MD Anderson Cancer Center core RPPA facility for RPPA analysis (Table S5). Three biological replicates for each sample were generated.
Nomenclatures on the RPPA heatmaps: name_of_antibody.species_of_antibody.status_of_antibody. V - antibody validated; C - validation of antibody in progress; Q - antibody nonspecific; E – under evaluation; antibodies raised in M - mouse, G - goat, R - rabbit, or T - rat.

SMILES: CN(C)c1cccc(Nc2cc(-c3ccccc3)nc(C3CCNCC3)n2)c1 [ARN22089, N1,N1-dimethyl-N3-(6-phenyl-2-(piperidin-4-yl)pyrimidin-4-yl)benzene-1,3-diamine]
- DJ1.R.V RPPA level (replicates): 1.007 and 1.125
- DM.Histone.H3.R.V RPPA level (replicates): 0.950 and 1.152 and 1.117
- DM.K9.Histone.H3.M.V RPPA level (replicates): 1.035 and 0.996
- DNA.Ligase.IV.R.C RPPA level (replicates): 1.015 and 1.171 and 1.125
- DNA_POLG.R.V RPPA level (replicates): 1.082 and 0.866 and 0.834
- c.Jun_pS73.R.V RPPA level (replicates): 0.903 and 1.005
- c.Kit.R.V RPPA level (replicates): 1.119 and 0.884 and 0.682
- c.Met_pY1234_Y1235.R.V RPPA level (replicates): 0.935 and 1.110 and 1.140
- c.Myc.R.C RPPA level (replicates): 1.016 and 0.996 and 1.017
- cGAS.R.V RPPA level (replicates): 1.013 and 0.955
- cdc2_pY15.R.C RPPA level (replicates): 0.982 and 1.425 and 1.193
- cdc25C.R.V RPPA level (replicates): 0.985 and 0.925 and 0.943
- RPPA MYH11.R.C (single replicates): 1.049 and 0.899 and 0.794
- RPPA Myosin.IIa.R.C (single replicates): 0.881 and 0.604
- RPPA Myosin.IIa_pS1943.R.V (single replicates): 1.019 and 0.869 and 0.642
- RPPA Myt1.R.C (single replicates): 0.900
- RPPA N.Cadherin.R.V (single replicates): 1.025 and 0.927 and 1.105
- RPPA N.Ras.M.V (single replicates): 1.017 and 0.997
- RPPA NAPSIN.A.R.C (single replicates): 0.989 and 1.114 and 1.136
- RPPA NDRG1_pT346.R.V (single replicates): 0.757 and 1.000 and 1.113
- RPPA NDUFB4.R.V (single replicates): 1.030 and 0.897
- RPPA NRF2.R.C (single replicates): 0.980 and 1.023 and 1.172
- RPPA Notch1.R.V (single replicates): 0.979 and 0.930
- RPPA Notch1.cleaved.R.V (single replicates): 0.872 and 1.026
- RPPA Notch3.R.C (single replicates): 0.916 and 1.149
- RPPA Oct.4.R.C (single replicates): 1.033 and 1.165 and 1.085
- RPPA P.Cadherin.R.C (single replicates): 0.913 and 1.419 and 0.819
- RPPA PAI.1.M.V (single replicates): 0.893 and 0.953 and 1.083
- RPPA PAICS.R.C (single replicates): 1.002 and 0.988 and 0.707
- RPPA PAK1.R.V (single replicates): 1.101
- RPPA PAK4.R.V (single replicates): 0.901 and 0.983
- RPPA PAK_pS474_S602_S560.R.V (single replicates): 1.077 and 0.883 and 0.855
- RPPA PAK_pT423_T402.R.C (single replicates): 0.941 and 1.054 and 0.768
- RPPA PAR.R.C (single replicates): 1.057 and 2.014 and 0.910
- RPPA PARG.R.C (single replicates): 0.916 and 0.961 and 1.160
- RPPA PARP.R.V (single replicates): 0.918 and 1.359 and 0.791
- RPPA PAX6.R.V (single replicates): 0.958 and 1.096
- RPPA PAX8.R.C (single replicates): 1.084 and 0.915 and 0.888
- RPPA PCNA.M.C (single replicates): 0.983 and 0.768
- RPPA PD.1.R.V (single replicates): 1.028 and 0.932 and 1.016
- RPPA PD.L1.R.C (single replicates): 0.986 and 1.136
- RPPA PDH.M.V (single replicates): 1.030 and 0.955 and 1.162
- RPPA PDHA1.R.V (single replicates): 0.999 and 1.134 and 1.104
- RPPA PDHK1.R.C (single replicates): 0.895 and 1.143 and 1.132
- RPPA PDK1.R.V (single replicates): 0.979 and 1.236 and 0.914
- RPPA PDK1_pS241.R.V (single replicates): 1.012 and 1.286 and 1.116
- RPPA PEA.15.R.V (single replicates): 0.973 and 1.022 and 0.716
- RPPA PEA.15_pS116.R.V (single replicates): 1.025 and 1.082
- RPPA PERK.R.V (single replicates): 0.799 and 0.886
- RPPA PGM1.R.V (single replicates): 0.922
- RPPA PHGDH.R.C (single replicates): 1.026 and 1.054 and 1.162
- RPPA PHLPP.R.V (single replicates): 1.309 and 0.725 and 0.733
- RPPA PI3K.p85.R.C (single replicates): 0.979
- RPPA PI3K.p110.a.R.C (single replicates): 0.889 and 1.115 and 1.166
- RPPA PI3K.p110.b.M.C (single replicates): 1.076 and 0.970 and 0.893
- RPPA PKA.a.R.V (single replicates): 1.082 and 0.998 and 0.958
- RPPA PKC.a.b.II_pT638_T641.R.V (single replicates): 0.773 and 0.933
- RPPA PKC.b.II_pS660.R.V (single replicates): 0.932 and 1.415 and 1.139
- RPPA PKCa.R.V (single replicates): 0.879 and 2.309 and 1.199
- RPPA PKM2.R.C (single replicates): 0.777
- RPPA PLC.gamma1.R.V (single replicates): 1.266 and 0.848 and 0.796
- RPPA PLC.gamma1_pS1248.R.V (single replicates): 1.131 and 1.203 and 0.848
- RPPA PLC.gamma2_pY759.R.V (single replicates): 0.953
- RPPA PLK1.R.C (single replicates): 0.988 and 0.536 and 1.237
- RPPA PMS2.R.V (single replicates): 1.054 and 0.898 and 0.867
- RPPA PR.R.V (single replicates): 1.016 and 0.968 and 1.112
- RPPA PRAS40.M.C (single replicates): 1.006 and 0.977 and 0.990
- RPPA PRAS40_pT246.R.V (single replicates): 0.957 and 1.288 and 0.838
- RPPA PRC1_pT481.R.C (single replicates): 0.841 and 0.955
- RPPA PREX1.R.V (single replicates): 0.972 and 0.995 and 1.201
- RPPA PTEN.R.V (single replicates): 0.880 and 1.147
- RPPA PTPN12.R.V (single replicates): 1.009 and 1.217 and 1.054
- RPPA PYGB.R.V (single replicates): 0.990 and 0.966 and 0.675
- RPPA PYGM.M.C (single replicates): 1.013 and 0.953 and 0.526
- RPPA Patched.R.C (single replicates): 0.925 and 1.120 and 1.169
- RPPA Paxillin.R.C (single replicates): 0.754 and 1.008 and 1.170
- RPPA Pdcd4.R.C (single replicates): 0.973 and 1.288 and 1.207
- RPPA Porin.M.V (single replicates): 1.021 and 0.963 and 0.824
- RPPA Puma.R.C (single replicates): 1.003 and 0.771
- RPPA Pyk2_pY402.R.C (single replicates): 0.977 and 1.146 and 1.149
- RPPA RBM15.R.V (single replicates): 0.950 and 1.004 and 0.982
